Earlier results, collected in US6660299B2, “Modified release pharmaceutical formulation comprising amoxycillin” (Beecham Pharmaceuticals Limited, priority 1999, dated 2003).

Conditions: in vivo

excretion half-life: 1.3 h
SMILES: CC1(C)S[C@@H]2[C@H](NC(=O)[C@H](N)c3ccc(O)cc3)C(=O)N2[C@H]1C(=O)O [amoxycillin]
